Data on two compounds can be found in patent publication US8613950B2, “Pharmaceutical forms with improved pharmacokinetic properties” (Bayer Intellectual Property GmbH, priority 2005, dated 2013).

Counter-ions that a name gives are not always drawn.

For series [1] the following is noted: cited from earlier work.
Series [2] is described as follows: Solubility of the vardenafil form employed in 10 ml of physiological saline at 25° C. It counts as physicochemical. The text has this:
Accordingly, the present invention provides a vardenafil-comprising drug formulation, which is characterized in that the solubility of the form of vardenafil employed in a small amount of aqueous liquid is sufficiently high and the dissolution rate of the formulation disintegrating in the mouth is sufficiently rapid.

In the case of `CCCc1nc(C)c2c(=O)[nH]c(-c3cc(S(=O)(=O)N4CCN(CC)CC4)ccc3OCC)nn12` [vardenafil], the bioavailability entry in series [1] (known property of vardenafil, oral) is given as “about 14%”. The “time after administration at which the rapid decrease in the plasma concentration occurs” value in series [1] (oral administration of vardenafil) was “about 1 hour”.
In the case of `CCCc1nc(C)c2c(=O)[nH]c(-c3cc(S(=O)(=O)N4CCN(CC)CC4)ccc3OCC)nn12` [vardenafil hydrochloride trihydrate], the “amount of the active compound form that dissolves in 10 ml of physiological saline” value in series [2] (10 ml physiological saline, amount offered = tablet dose corresponding to 10 mg of vardenafil, hydrochloride trihydrate) is “about 10.4 mg”. Also, the “dissolved amount expressed as vardenafil” value in series [2] (10 ml physiological saline, dose 11.85 mg vardenafil hydrochloride trihydrate) is 8.8 mg. For the same compound, in series [2] (dose 5.93 mg vardenafil hydrochloride trihydrate (5 mg vardenafil)), the “share of the active compound employed that dissolves in 10 ml of physiological saline” value was 91%. For the same compound, in series [2] (dose corresponding to 10 mg of vardenafil, hydrochloride trihydrate), the “share of the dose of the active compound employed that dissolves in 10 ml of physiological saline” value turned out to be 88%.
